Experiments:
[1] = biological target: T1, human EAAT3 (Homo sapiens, UniProt P43005); assay: FLIPR Membrane Potential (FMP) assay, antagonist potency at human EAAT3 with L-glutamate as agonist; assay type: cell-based; settings: HEK-293 cells stably expressing human EAAT3; L-glutamate at 80% of maximum response; antagonist applied 15 min before agonist; Kb by Cheng-Prusoff equation
T1 construct: expressed in transfected cells
T1 sequence (P43005 1-524): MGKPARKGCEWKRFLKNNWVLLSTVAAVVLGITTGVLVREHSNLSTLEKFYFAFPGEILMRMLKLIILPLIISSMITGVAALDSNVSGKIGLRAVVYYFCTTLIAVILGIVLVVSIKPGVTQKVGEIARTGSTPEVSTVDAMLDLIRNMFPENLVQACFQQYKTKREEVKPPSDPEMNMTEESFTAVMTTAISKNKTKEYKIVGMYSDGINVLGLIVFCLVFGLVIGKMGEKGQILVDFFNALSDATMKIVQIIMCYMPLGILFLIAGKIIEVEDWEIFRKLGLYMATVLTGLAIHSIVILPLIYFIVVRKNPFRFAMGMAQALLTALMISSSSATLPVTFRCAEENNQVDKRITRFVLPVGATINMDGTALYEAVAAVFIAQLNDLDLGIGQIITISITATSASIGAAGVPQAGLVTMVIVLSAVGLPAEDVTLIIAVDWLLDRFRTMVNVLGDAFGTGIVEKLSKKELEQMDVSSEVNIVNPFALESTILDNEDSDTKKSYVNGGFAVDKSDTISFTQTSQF
Procedure: The FLIPR Membrane Potential (FMP) Assay
HEK-293 cells stably expressing human EAAT3 were seeded at 55 000 cells/well in growth medium (DMEM glutamate free (Invitrogen 11960-044), 1% Pen Strep (10 ml/l GIBCO BRL No 15140-023), 10% FCS non dialysed heat inactivated, 5 mg/l puromycin) in poly-D-lysine treated 96-well black microtiter plates with clear-bottom. After 24 h, the growth medium was removed and 100 μl/well of Krebs buffer (140 mM NaCl, 4.7 mM KCl, 2.5 mM CaCl2, 1.2 mM MgCl2, 11 mM HEPES, 10 mM D-glucose, pH=7.4) added. The cells were then loaded by adding 100 μl/well FMP assay dye (FLIPR Membrane Potential assay reagent, Molecular Devices). The 96-well plates were then incubated at 37° C. for 1 h. The depolarization of the cells will cause more dye to enter in the cells, where it will bind to intracellular proteins and lipids and cause an increase in the fluorescence signal. Antagonist potency at human EAAT3 was determined by using L-glutamate as agonist at a concentration which gives 80% of the maximum response. The antagonists were applied 15 min before the application of the agonist L-glutamate. The assays were performed at room temperature and measurements done by using a Fluorometric Imaging Plate Reader (FLIPR, Molecular Devices) and filter #2. Responses were measured as peak increase in fluorescence minus basal (i.e. fluorescence without addition of L-glutamate). Kb was determined using the Cheng-Prusoff equation Kb=IC50/[1+(A/EC50)], where IC50 is the concentration of the antagonist producing 50% inhibition, A is the concentration of the agonist against which the IC50 is being determined (at EC50) and EC50 is the concentration of the agonist producing […].

Structure (SMILES) | melting point | Kb [1]
CC(C)n1cncc1-c1cc(C(=O)NC(C)(C)C)cc(-c2ccc(F)cc2)c1 [Example 1, N-tert-Butyl-3-(4-fluorophenyl)-5-(3-propan-2-yl-imidazol-4-yl)-benzamide] | 85 °C | 160 nM
CC(C)n1cncc1-c1cc(C(=O)NC(C)(C)C)cc(-c2ccc(Cl)cc2)c1 [Example 3, N-tert-Butyl-3-(4-chlorophenyl)-5-(3-propan-2-yl-imidazol-4-yl)-benzamide] | 97.5 °C | 140 nM
Cn1cncc1-c1cc(C(=O)NC(C)(C)C)cc(-c2ccc(Cl)cc2)c1 [Example 4, N-tert-Butyl-3-(4-chlorophenyl)-5-(3-methyl-imidazol-4-yl)-benzamide] | 79.5 °C | 290 nM
Cn1cncc1-c1cc(C(=O)NC(C)(C)C)cc(-c2ccc(F)cc2)c1 [Example 6, N-tert-Butyl-3-(4-fluorophenyl)-5-(3-methyl-imidazol-4-yl)-benzamide] | 62 °C | 270 nM
CC(C)(C)NC(=O)c1cc(-c2ccc(Cl)cc2)cc(-c2cncn2C(C)(C)C)c1 [Example 7, N-tert-Butyl-3-(3-tert-butyl-imidazol-4-yl)-5-(4-chlorophenyl)-benzamide] | 92 °C | 200 nM
CCn1cncc1-c1cc(C(=O)NC(C)(C)C)cc(-c2ccc(Cl)cc2)c1 [Example 8, N-tert-Butyl-3-(4-chlorophenyl)-5-(3-ethyl-imidazol-4-yl)-benzamide] | 89 °C | 190 nM
CC(C)(C)NC(=O)c1cc(-c2ccc(F)cc2)cc(-c2cncn2C(C)(C)C)c1 [Example 11, N-tert-Butyl-3-(3-tert-butyl-imidazol-4-yl)-5-(4-fluorophenyl)-benzamide] | 96 °C | 210 nM

Now from value to compound:

melting point | Kb [1] | Structure (SMILES)
88 °C | 270 nM | CC(C)n1cncc1-c1cc(C(=O)NC(C)(C)C)cc(-c2ccc(C(F)(F)F)cc2)c1 [Example 2, N-tert-Butyl-3-(3-propan-2-yl-imidazol-4-yl)-5-[4-(trifluoromethyl)-phenyl]-benzamide]
78.5 °C | 360 nM | Cn1cncc1-c1cc(C(=O)NC(C)(C)C)cc(-c2ccc(C(F)(F)F)cc2)c1 [Example 5, N-tert-Butyl-3-(3-methyl-imidazol-4-yl)-5-[4-(trifluoromethyl)-phenyl]-benzamide]
79 °C | 160 nM | CCn1cncc1-c1cc(C(=O)NC(C)(C)C)cc(-c2ccc(F)cc2)c1 [Example 9, N-tert-Butyl-3-(3-ethyl-imidazol-4-yl)-5-(4-fluorophenyl)-benzamide]
87 °C | 230 nM | CCn1cncc1-c1cc(C(=O)NC(C)(C)C)cc(-c2ccc(C(F)(F)F)cc2)c1 [Example 10, N-tert-Butyl-3-(3-ethyl-imidazol-4-yl)-5-[4-(trifluoromethyl)-phenyl]-benzamide]
87 °C | 270 nM | CC(C)(C)NC(=O)c1cc(-c2ccc(C(F)(F)F)cc2)cc(-c2cncn2C(C)(C)C)c1 [Example 12, N-tert-Butyl-3-(3-tert-butyl-imidazol-4-yl)-5-[4-(trifluoromethyl)-phenyl]-benzamide]

Source: US10556870B2, “Imidazole compounds as EAAT3 inhibitors” (Hoffmann-La Roche Inc., priority 2016, dated 2020)
